Assay results published in patent US8871681B2, “Herbicidal compositions comprising 4-amino-3-chloro-5-fluoro-6-(4-chloro-2-fluoro-3-methoxyphenyl) pyridine-2-carboxylic acid or a derivative thereof and certain sulfonylureas” (Dow AgroSciences LLC, priority 2012, dated 2014).

Tests used:
[1] = system: BRAPP (Brachiaria platyphylla, broadleaf signalgrass); test: Postemergence foliar-applied weed control, direct seeded rice, greenhouse (Example I); type: in vivo, Brachiaria platyphylla (Griseb.) Nash; conditions: Urochloa platyphylla, post-emergence, 504 h, read-out: Visual Weed Control (%) Obs, 21 DAA
Text: (§1) Seeds or nutlets of the desired test plant species were planted in a soil matrix prepared by mixing a loam or sandy loam soil (e.g., 28.6 percent silt, 18.8 percent clay, and 52.6 percent sand, with a pH of about 5.8 and an organic matter content of about 1.8 percent) and calcareous grit in an 80 to 20 ratio. The soil matrix was contained in plastic pots with a volume of 1 quart and a surface area of 83.6 square centimeters (cm^2). When required to ensure good germination and healthy plants, a fungicide treatment and/or other chemical or physical treatment was applied. The plants were grown for 8-22 days in a greenhouse with an approximate 14 h photoperiod which was maintained at about 29° C. during the day and 26° C. during the night. Nutrients (Peters Excel® 15-5-15 5-Ca 2-Mg and iron chelate) were applied in the irrigation solution as needed and water was added on a regular basis. Supplemental lighting was provided with overhead metal halide 1000-Watt lamps as necessary. The plants were employed for testing when they reached the first through fourth true leaf stage.
(§2) Treatments consisted of the acid or esters of 4-amino-3-chloro-5-fluoro-6-(4-chloro-2-fluoro-3-methoxy-phenyl)pyridine-2-carboxylic acid (Compound A), each formulated as an SC, and various herbicidal components alone and in combination. Forms of compound A were applied on an acid equivalent basis.
(§3) Other herbicidal components were applied on an active ingredient basis and included acetolactate synthase (ALS)-inhibiting herbicides (sulfonylurea chemical class) azimsulfuron formulated as Gulliver®, bensulfuron-methyl formulated as Londax® 60DF, cyclosulfamuron (technical material), ethoxysulfuron formulated as Sunrice® 15 WDG, flazasulfuron formulated as Katana®, flucetosulfuron formulated as Sukedachi® 1KG G, foramsulfuron formulated as Option®, imazosulfuron formulated as Brazzos® WG, iodosulfuron-methyl-sodium formulated as Hussar®, metsulfuron-methyl formulated as Lorate®, nicosulfuron formulated as Accent®, orthosulfamuron formulated as Strada® WG, primisulfuron-methyl (technical material), propyrisulfuron formulated as Zeta One®, rimsulfuron formulated as Matrix® WG, sulfometuron-methyl formulated as Oust®, and trifloxysulfuron-sodium formulated as Monument® 75WG.
(§4) Treatment requirements were calculated based upon the rates being tested, the concentration of active ingredient or acid equivalent in the formulation, and a 12 mL application volume at a rate of 187 L/ha.
(§5) For treatments comprised of formulated compounds, measured amounts of compounds were placed individually in 25 mL glass vials and diluted in a volume of 1.25% (v/v) Agri-Dex® crop oil concentrated to obtain 12× stock solutions. […] Application solutions were prepared by adding an appropriate amount of each stock solution (e.g., 1 mL) and diluted to the appropriate final concentrations with the addition of 10 mL of an aqueous mixture of 1.25% (v/v) crop oil concentrate so that the final spray solutions contained 1.25+/−0.05% (v/v) Agrcrop oil concentrate.
(§6) For treatments comprised of formulated and technical compounds, weighed amounts of the technical materials were placed individually in 25 mL glass vials and dissolved in a volume of 97:3 v/v acetone/DMSO to obtain 12× stock solutions, and measured amounts of the formulated compounds were placed individually in 25 mL glass vials and diluted in a volume of 1.25% (v/v) crop oil concentrate to obtain 12× stock solutions. […] Application solutions were prepared by adding an appropriate amount of each stock solution (e.g., 1 mL) and diluted to the appropriate final concentrations with the addition of an appropriate amount of an aqueous mixture of 1.5% (v/v) crop oil concentrate so that the final spray solutions contained 1.25% (v/v) crop oil concentrate. […]

[2] = system: ECHCG (Echinochloa crusgalli, barnyardgrass); test: as above; type: in vivo, Echinochloa crusgalli (L.) Beauv.; conditions: 27 DAA
Text: as §1, §2, §3, §4, §5, §6

[3] = system: ECHOR (Echinochloa oryzoides, early watergrass); test: In-water applied weed control, transplanted paddy rice, greenhouse (Example II); type: in vivo, Echinochloa oryzoides (Ard.) Fritsch
Protocol: (§7) Weed seeds or nutlets of the desired test plant species were planted in puddled soil (mud) prepared by mixing a shredded, non-sterilized mineral soil (50.5 percent silt, 25.5 percent clay, and 24 percent sand, with a pH of about 7.6 and an organic matter content of about 2.9 percent) and water at a 1:1 volumetric ratio. The prepared mud was dispensed in 365 mL aliquots into 16-ounce (oz.) non-perforated plastic pots with a surface area of 86.59 square centimeters (cm^2) leaving a headspace of 3 centimeters (cm) in each pot. Rice seeds were planted in Sun Gro MetroMix® 306 planting mixture, which typically has a pH of 6.0 to 6.8 and an organic matter content of about 30 percent, in plastic plug trays. Seedlings at the second or third leaf stage of growth were transplanted into 860 mL of mud contained in 32-oz. non-perforated plastic pots with a surface area of 86.59 cm^2 4 days prior to herbicide application. The paddy was created by filling the headspace of the pots with 2.5 to 3 cm of water. When required to ensure good germination and healthy plants, a fungicide treatment and/or other chemical or physical treatment was applied. The plants were grown for 4-22 days in a greenhouse with an approximate 14 h photoperiod which was maintained at about 29′C during the day and 26° C. during the night. Nutrients were added as Osmocote® (19:6:12, N:P:K+minor nutrients) at 2 g per 16-oz. pot and 4 g per 32-oz. pot. Water was added on a regular basis to maintain the paddy flood, and supplemental lighting was provided with overhead metal halide 1000-Watt lamps as necessary. The plants were employed for testing when they reached the first through fourth true leaf stage.
(§8) Treatments consisted of the acid or esters of 4-amino-3-chloro-5-fluoro-6-(4-chloro-2-fluoro-3-methoxy-phenyl)pyridine-2-carboxylic acid (compound A) each formulated as an SC and various herbicidal components alone and in combination. Forms of compound A were applied on an acid equivalent basis.
(§9) Other herbicidal components were applied on an active ingredient basis and included acetolactate synthase (ALS)-inhibiting herbicides (sulfonylurea chemical class), azimsulfuron formulated as Gulliver®, bensulfuron-methyl formulated as Londax® 60DF, cyclosulfamuron (technical grade materail), ethoxysulfuron formulated as Sunrice® 15 WDG, flucetosulfuron formulated as Sukedachi® 1KG G, imazosulfuron formulated as Brazzos®, metsulfuron-methyl formulated as Lorate®, nicosulfuron formulated as Accent®, orthosulfamuron formulated as Strada® WG, propyrisulfuron formulated as Zeta One®, and rimsulfuron formulated as Matrix® WG.
(§10) Treatment requirements for each compound or herbicidal component were calculated based upon the rates being tested, the concentration of active ingredient or acid equivalent in the formulation, an application volume of 2 mL per component per pot, and an application area of 86.59 cm^2 per pot.
(§11) For formulated compounds, a measured amount was placed in an individual 100 or 200 mL glass vial and was dissolved in a volume of 1.25% (v/v) Agri-Dex® crop oil concentrate to obtain application solutions.
(§12) For technical grade compounds, a weighed amount was placed in an individual 100 to 200 mL glass vial and was dissolved in a volume of acetone to obtain concentrated stock solutions. […] The concentrated stock solutions obtained were diluted with an equivalent volume of an aqueous mixture containing 2.5% (v/v) crop oil concentrate so that the final application solutions contained 1.25% (v/v) crop oil concentrate.
(§13) Applications were made by injecting with a pipetter appropriate amounts of the application solutions, individually and sequentially, into the aqueous layer of the paddy. Control plants were treated in the same manner with the solvent blank. Applications were made so that all treated plant material received the same concentrations of acetone and crop oil concentrate. […]

[4] = system: SCPMA (Bolboschoenus maritimus or Schoenoplectus maritimus, sea clubrush); test: as above; type: in vivo, Bolboschoenus maritimus (L.) Palla
Protocol: as §7, §8, §9, §10, §11, §12, §13

[5] = system: CIRAR (Cirsium arvense, Canada thistle); test: Post-emergence foliar-applied weed control in cereal crops, greenhouse (Example III); type: in vivo, Cirsium arvense (L.) Scop.; conditions: foliar-applied, after 20-22 days
Protocol: (§14) Seeds of the desired test plant species were planted in Sun Gro MetroMix® 306 planting mixture, which typically has a pH of 6.0 to 6.8 and an organic matter content of about 30 percent, in plastic pots with a surface area of 103.2 square centimeters (cm^2). When required to ensure good germination and healthy plants, a fungicide treatment and/or other chemical or physical treatment was applied. The plants were grown for 7-36 days in a greenhouse with an approximate 14 hour photoperiod which was maintained at about 18° C. during the day and 17° C. during the night. Nutrients and water were added on a regular basis and supplemental lighting was provided with overhead metal halide 1000-Watt lamps as necessary. The plants were employed for testing when they reached the second or third true leaf stage.
(§15) Treatments consisted of the benzyl ester of 4-amino-3-chloro-5-fluoro-6-(4-chloro-2-fluoro-3-methoxy-phenyl)pyridine-2-carboxylic acid (Compound A), formulated as an SC (suspension concentrate), and a second cereal herbicide alone and in combination.
(§16) Measured aliquot of benzyl ester of 4-amino-3-chloro-5-fluoro-6-(4-chloro-2-fluoro-3-methoxy-phenyl)pyridine-2-carboxylic acid (Compound A) was placed in 25 milliliter (mL) glass vials and diluted in a volume of 1.25% (v/v) Agri-dex crop oil concentrated to obtain stock solutions. Compound requirements are based upon a 12 mL application volume at a rate of 187 liters per hectare (L/ha). Spray solutions of the second cereal herbicide and experimental compound mixtures were prepared by adding the stock solutions to the appropriate amount of dilution solution to form 12 mL spray solution with active ingredients in two- and three-way combinations. Formulated compounds were applied to the plant material with an overhead Mandel track sprayer equipped with an 8002E nozzle calibrated to deliver 187 L/ha over an application area of 0.503 square meters (m^2) at a spray height of 18 inches (46 cm) above average plant canopy. Control plants were sprayed in the same manner with the solvent blank.
(§17) The treated plants and control plants were placed in a greenhouse as described above and watered by sub-irrigation to prevent wash-off of the test compounds. After 20-22 days, the condition of the test plants as compared with that of the control plants was determined visually and scored on a scale of 0 to 100 percent where 0 corresponds to no injury and 100 corresponds to complete kill.
(§18) Colby's equation was used to determine the herbicidal effects expected from the mixtures (Colby, S. R. 1967. Calculation of the synergistic and antagonistic response of herbicide combinations. Weeds 15:20-22.).
(§19) The following equation was used to calculate the expected activity of mixtures containing two active ingredients, A and B: Expected=A+B−(A×B/100)

[6] = system: VERPE (Veronica persica, bird's-eye speedwell); test: as above; type: in vivo, Veronica persica Poir.
Protocol: as §14, §15, §16, §17, §18, §19

[7] = system: MATCH (Chamomilla chamomilla, scented mayweed); test: as above; type: in vivo, Chamomilla chamomilla (L.) Rydb.
Protocol: as §14, §15, §16, §17, §18, §19

[8] = Table 55, after 20-22 days, 3 gai/ha alone

For `CCCCOC(=O)c1nc(-c2ccc(Cl)c(OC)c2F)c(F)c(N)c1Cl` [Compound A n-Butyl Ester], the pest or weed control at 4.38 g/ha ([1]; 4.38 gae/ha) was 0%, the pest or weed control at 8.75 g/ha ([1]; 8.75 gae/ha) was 40% and the “Visual Weed Control (%) Obs” value ([2]; 4.38 gae/ha) was 0%. For the same compound, the “Visual Weed Control (%) Obs” value ([2]; 8.75 gae/ha) was 0%, the “Visual Weed Control (%) - 20 DAA ECHOR Obs” value ([3]; Table 30, 35 gae/ha alone) was 28% and the “Visual Weed Control (%) - 20 DAA ECHOR Obs” value ([3]; Table 30, 70 gae/ha alone) was 45%. The “Visual Weed Control (%) - 20 DAA SCPMA Obs” value ([4]; Table 40, 35 gae/ha alone) was 0% and the “Visual Weed Control (%) - 20 DAA SCPMA Obs” value ([4]; Table 40, 70 gae/ha alone) was 0%.

`COC(=O)c1ccc(C(F)(F)F)nc1S(=O)(=O)NC(=O)Nc1nc(OC)cc(OC)n1` [Flupyrsulfuron-methyl sodium] was tested, and the pest or weed control at 5 g/ha ([5]; Cirsium arvense, post-emergence, Table 53, 5 gai/ha alone, read-out: Weed Control CIRAR Obs) was 75% and the “Weed Control VERPE Obs” value ([6]; Table 53, after 20-22 days, 5 gai/ha alone) was 0%.

In the case of `COC(=O)c1ccc(CNS(C)(=O)=O)cc1S(=O)(=O)NC(=O)Nc1nc(OC)cc(OC)n1` [Mesosulfuron-methyl], the “Weed Control MATCH Obs” value [7, 8] is reported as 40%, the “Weed Control CIRAR Obs” value ([5]; Table 55, 3 gai/ha alone) is reported as 78% and the “Weed Control VERPE Obs” value [6, 8] is reported as 5%.

`COC(=O)c1ccccc1S(=O)(=O)NC(=O)N(C)c1nc(C)nc(OC)n1` [Tribenuron-methyl] was tested, and the “Weed Control MATCH Obs” value ([7]; Table 59 (cereal), after 20-22 days, 2.2 gai/ha alone) was 90% and the pest or weed control at 2.2 g/ha ([5]; Cirsium arvense, post-emergence, Table 59 (cereal), 2.2 gai/ha alone, read-out: Weed Control CIRAR Obs) was 50%.
